Residues, ends and D or L forms follow the SMILES beside them. No end group written: not given here. *: point of attachment. Cbz = O=C(OCc1ccccc1)*; CH2F = FC*
Tests used:
Type in all cases: cell-based
[1] = test system: KSHV-infected BCBL1 cells; assay: Rapamycin- or zVAD-induced growth suppression and autophagic death
Procedure: (§1) The effect of vFLIP on autophagy was tested in a KSHV-infected BCBL1 cell line. TREX-BCBL-Vector and TREX-BCBL-vFLIP cells were treated with rapamycin or left untreated for 6 days in the presence of doxycycline and subjected to scanning EM, to examine the morphologies of over 100 dead cells and quantify cell death for apoptosis and autophagic death, or subjected to PI staining and cell cycle analysis.
(§2) All siRNAs were produced by Dharmacon Research. siRNAs specific for human Beclin1 (5′[…]3′) and a nonspecific scrambled control siRNA were transfected using DharmaFect reagent (Dharmacon) according to the manufacturer's instructions. At 48-72 hr post-transfection, cells were analyzed for autophagy. Trypan blue staining and a Beckman Coulter Z2 Particle Count and Size analyzer were used to determine cell death (as a percentage) at day 5.

human Beclin1 = assay: Beclin1 siRNA knockdown in BCBL1 cells
Procedure: as §2

[2] = test system: KSHV-infected TREX-BCBL-Vector cells; assay: GFP-LC3 puncta autophagy assessment after peptide treatment; details: 30 or 50 μM peptide, 12 hr
Excerpt: (§3) The vFLIP α2 (10 aa) and α4 (12 aa) peptides that independently bound Atg3 at high efficiency were fused with the HIV-1 TAT protein transduction domain for intracellular delivery (Gump and Dowdy (2007) Trends Mol. Med. 13:443-448) and tested for their potential effects on autophagy induction. The K-α2 and K-α4 peptides contained KSHV vFLIP aa20-29 and aa128-139 regions, respectively, as retro-inverso versions to circumvent the proteolytic degradation. Mutant peptides K-α2m and K-α4m were also included, which replaced the hydrophobic core residues of the K-α2 (L21F22L23) and K-α4 (F130L-WVY139) peptides with alanines, as well as the C-α2 and C-α4 peptides containing the cFLIPs regions aa19-28 and aa128-139, respectively. At 12 hr post-transfection with GFP-LC3, KSHV-infected TREX-BCBL-Vector and TREX-BCBL-vFLIP cells were incubated with various concentrations of the peptides or rapamycin for an additional 12 hr, followed by an assessment of the GFP-LC3 puncta and cell death. […] Peptide-treated TREX-BCBL-Vector and TREX-BCBL-vFLIP cells were subjected to immunoblotting with αLC3 and aactin.

LC3-II in BCBL1 cells = assay: Immunoblotting with αLC3 of peptide-treated cells; details: immunoblot
Excerpt: as §3

[3] = test system: mTor kinase activity in BCBL1 cells; assay: Immunoblot of p70S6K and ribosomal protein S6 phosphorylation; details: treated BCBL1 cells
Procedure: Levels of phosphorylation of p70S6K and ribosomal protein S6 in BCBL1 cells were evaluated by immunoblotting with α-p70S6K, aphospho-specific p70S6K, aphospho-specific S6, or αactin.

[4] = test system: virus-associated or non-virus-associated lymphoma cells; assay: Cell-type specificity of vFLIP peptide-induced death; details: 30 or 50 μM peptide overnight
Procedure: The potential cell-type specificity of the activity of the vFLIP peptides was assessed by treating virus-associated or non-virus-associated lymphoma cells with 30 or 50 μM of the K-α2 or the K-α4 peptide overnight and subsequently assessing death levels.

[5] = test system: KSHV-infected BCBL1 cells; assay: Combinatory treatment with rapamycin and peptide; details: 25 nM rapamycin and 20 μM peptide, versus rapamycin or peptide alone
ALL cells = assay: Tumor cell viability by trypan blue exclusion, ALL cells; details: for anticancer activity in ALL cell lines: BV-173 and SUP-B15, FIG. 5
Procedure: (§4) Tumor cells were treated with peptides at various concentrations for 12 hours and their viability measured by trypan blue exclusion, followed by analyses using the Beckman Coulter Z2 Particle Count and Size Analyzer (BC Z2 CS Analyzer). A minimum of 100 cells per sample using triplicate samples was counted per condition per experiment.

[6] = test system: human T cell lymphoblast-like cells, Jurket T; assay: Tumor cell viability by trypan blue exclusion, Jurket T; details: FIG. 6A
Procedure: as §4

[7] = test system: human erythromyeloblastoid leukemia cells, K562; assay: Tumor cell viability by trypan blue exclusion, K562; details: FIG. 6B
Procedure: as §4

LNCap cells = assay: Tumor cell viability, LNCap prostate cancer line
Procedure: as §4

293T cells = assay: Tumor cell viability, 293T cells; details: FIG. 7B
Procedure: as §4

HCT116 = assay: Tumor cell viability, HCT116 colon cancer line; details: FIG. 7C
Procedure: as §4

TREX-BCBL cells = assay: vFLIP expression in KSHV-infected BCBL1 cells: autophagy, growth suppression and death; details: ectopic expression in BCBL1 cells
Procedure: To investigate whether vFLIP expression suppresses autophagy in virus-infected cells, a KSHV-infected BCBL1 cell line was constructed (TREX-BCBL) in which a Flag-tagged KSHV-vFLIP gene was integrated into the chromosomal DNA under the control of a tetracycline-inducible promoter. (Nakamura et al. (2003) J. Virol. 77:4205-4220). At 12-16 hr post-transfection with GFP-LC3, TREX-BCBL-Vector and TREX-BCBL-vFLIP cells were treated with Doxycycline for 24 hr, followed by incubation with 2 μM rapamycin for an additional 12 hr. The detection of GFP-LC3 and autophagy levels was performed as described above, vFLIP expression was detected by IB with anti-Flag, and autophagosomes were visualized by scanning EM (scale bar=50 nm). Treatment of these cells with doxycycline strongly activated Flag-vFLIP expression.
as §1, §2

NIH3T3 cells = assay: TNFα-induced apoptosis by PI staining and flow cytometry; details: CHX and TNF-α 12 hr
Excerpt: To determine the effects of the interactions of vFLIP with FADD, IKKαβγ, and 14-3-3σ on anti-autophagy activity, NIH3T3 cells stably expressing various vFLIP mutants were constructed: m14-3-3σ, which lacks 14-3-3σ-binding; mTRAF2, which lacks TRAF2-binding (Guasparri et al. (2006) EMBO Rep. 7:114-119); 67AAA and 58AAA, which have reduced NF-κB activation (Matta and Chaudhary (2004) Proc. Natl. Acad. Sci. USA 101:9399-9404); and mFADD, which lacks FADD-binding (Yang et al. (2005) Mol. Cell. 20:939-949). These cells were treated with either cyclohexamide (CHX) alone or CHX and TNF-α for 12 hr or with 2 μM rapamycin for 3 hr. Propidium iodide (PI) staining and flow cytometry analysis were performed to determine apoptosis levels. Alternatively, NIH3T3 cells containing vector, KSHV vFLIP, or its mutants were transfected with an NF-κB-luciferase reporter construct and a control renilla luciferase plasmid, pRL-SV40 (Promega). At 48 hr post-transfection, luciferase activity was measured with a luminometer using a dual luciferase assay kit (Promega) and normalized with renilla luciferase activity to determine transfection efficiency. GFP-LC3 puncta were detected using an inverted fluorescence microscope and the autophagy levels quantified as means (±SD) of the results from three independent experiments.

Molecule | autophagy induction (GFP-LC3 puncta) [2] | amount of LC3-II (LC3-II in BCBL1 cells) | phosphorylation of p70S6K [3] | phosphorylation of ribosomal protein S6 [3] | cell death by lymphoma cell type [4] | growth suppression and cell death in combination with rapamycin [5] | anticancer activity in ALL cell lines (ALL cells) | also measured
CO[C@H]1C[C@@H]2CC[C@@H](C)[C@@](O)(O2)C(=O)C(=O)N2CCCC[C@H]2C(=O)O[C@H]([C@H](C)C[C@@H]2CC[C@@H](O)[C@H](OC)C2)CC(=O)[C@H](C)/C=C(\C)[C@@H](O)[C@@H](OC)C(=O)[C@H](C)C[C@H](C)/C=C/C=C/C=C/1C [rapamycin] | – | – | – | – | – | – | – | dead cells with features characteristic of autophagic death (EM) ([1]; rapamycin, 6 days, over 100 dead cells examined): approximately 60%
5′AAGAUCCUGGACCGUGUCACC3′ [Beclin1 siRNA] | – | – | – | – | – | – | – | endogenous Beclin1 expression (human Beclin1): significantly reduced endogenous Beclin1 expression; effect on rapamycin-induced autophagic death (human Beclin1; cell death at day 5): attenuated rapamycin-induced autophagic death
COC(=O)CC(NC(=O)C(C)NC(=O)C(NC(=O)OCc1ccccc1)C(C)C)C(=O)CF (stereo not drawn) [zVAD, benzyloxycarbonylvalyl-alanyl-aspartic acid (O-methyl)-fluoro-methylketone] (Cbz-Val-Ala-Asp(OMe)-CH2F; configuration not given here) | – | – | – | – | – | – | – | growth suppression and cell death ([1]; BCBL1 cells): effectively induced growth suppression and death of BCBL1 cells
RRRQRRKKRGY-G-NEMCYVWHLFTQ (RRRQRRKKRGYGNEMCYVWHLFTQ; not fully specified) [K-α4, HIV-1 TAT-fused retro-inverso peptide containing KSHV vFLIP aa128-139] | able to induce autophagy in TREX-BCBL-Vector cells as effectively as 2 μM rapamycin | A high amount of LC3-II was detected | marginal reduction | remained unaffected | broadly targeted most lymphoma cells, resulting in varying degrees of cell death | marked increase of growth suppression and cell death | significant anticancer activities | cell death in ALL cells (ALL cells; TAT linked peptide, 30 μM and 50 μM, compared to TAT alone, FIG. 1): induced cell deaths in various ALL cells; cell death in Jurket T [6]: induced cell death; cell death in K562 [7]: induced cell death; anticancer activity in LNCap cells (LNCap cells; FIG. 7A): anticancer activities; anticancer activity in LNCaP cells (cell count and relative luminescence) (LNCap cells; FIG. 8): confirms the anticancer activities; anticancer activity in 293T cells (293T cells): anticancer activities; anticancer activity in HCT116 (HCT116): anticancer activities
RRRQRRKKRGY-G-FVNLLFLVVE (RRRQRRKKRGYGFVNLLFLVVE; not fully specified) [K-α2, HIV-1 TAT-fused retro-inverso peptide containing KSHV vFLIP aa20-29] | able to induce autophagy in TREX-BCBL-Vector cells as effectively as 2 μM rapamycin | A high amount of LC3-II was detected | marginal reduction | remained unaffected | primarily targeted KSHV-infected PEL cells (BCBL1, BCP-1, and BC-3), but not KSHV/EBV-coinfected PEL cells (BC-1 and JSC-1), EBV-immortalized Bob-B cells, nor non-virus-associated lymphoma cells (BJAB, K562 and Jurkat-T) | marked increase of growth suppression and cell death | significant anticancer activities | –
mFADD (protein, UniProt Q61160 1-205, looked up) FAS-associated death domain …: MDPFLVLLHSLSGSLSGNDLMELKFLCRERVSKRKLERVQSGLDLFTVLLEQNDLERGHTGLLRELLASLRRHDLLQRLDDFEAGTATAAPPGEADLQVAFDIVCDNVGRDWKRLARELKVSEAKMDGIEEKYPRSLSERVRESLKVWKNAEKKNASVAGLVKALRTCRLNLVADLVEEAQESVSKSENMSPVLRDSTVSSSETP | – | – | – | – | – | – | – | block of rapamycin- or zVAD-induced growth suppression and autophagic death (TREX-BCBL cells): almost completely blocked; block of TNFα-induced apoptosis (NIH3T3 cells): either poorly blocked TNFα-induced apoptosis or no longer block it at all

Reference: patent US20130316958A1 (University of Southern California, priority 2010, published 2013)
